Test results published in patent US9913838B2, “Methods of treating cancer using compositions comprising perillyl alcohol derivative” (NEONC TECHNOLOGIES INC., priority 2010, dated 2018).
pIC50: −log10 of the molar value. Entries after “also recorded” stand apart in the source; their conditions may differ.

How the values were obtained:
U251 human glioma cells = experiment: MTT cytotoxicity assay, U251 glioma cells; settings: U251; result in words
From the text: In vitro efficacy of the present composition can be determined using methods well known in the art. For example, the cytoxicity of the present monoterpene (or sesquiterpene) and/or the therapeutic agents may be studied by MTT [3-(4,5-dimethylthiazol-2-yl)-2,5-diphenyl tetrazolium bromide] cytotoxicity assay. MTT assay is based on the principle of uptake of MTT, a tetrazolium salt, by metabolically active cells where it is metabolized into a blue colored formazon product, which can be read spectrometrically. J. of Immunological Methods 65: 55 63, 1983. The cytoxicity of the present monoterpene (or sesquiterpene) derivative and/or the therapeutic agents may be studied by colony formation assay. Functional assays for inhibition of VEGF secretion and IL-8 secretion may be performed via ELISA. Cell cycle block by the present monoterpene (or sesquiterpene) derivative and/or the therapeutic agents may be studied by standard propidium iodide (PI) staining and flow cytometry. Invasion inhibition may be studied by Boyden chambers. In this assay a layer of reconstituted basement membrane, Matrigel, is coated onto chemotaxis filters and acts as a barrier to the migration of cells in the Boyden chambers. Only cells with invasive capacity can cross the Matrigel barrier. Other assays include, but are not limited to cell viability assays, apoptosis assays, and morphological assays.
First cytotoxicity assays were carried out after cells were treated with dimethyl-celecoxib (DMC) alone.
Then U87, A172 and U251 cells were treated with dimethyl celecoxib bisPOH carbamate (POH−DMC) (e.g., synthesized by the method in Example 1), and the MTT cytotoxicity assays performed (FIG. 2).
First cytotoxicity assays were carried out after cells were treated with temozolomide (TMZ) alone, the standard alkylating agent used in the treatment of malignant gliomas.
Then TMZ-resistant glioma cell lines U87, A172 and U251 cells were treated with TMZ-POH (e.g., synthesized by the method in Example 3).
To compare the cytotoxicity of Rolipram POH Carbamate (POH-Rolipram) (e.g., synthesized by the method in Example 5) with rolipram, […] inducing differentiation and apoptosis in glioma cells, A172, U87, U251 and LN229 human glioma cells were treated with either POH-Rolipram or rolipram for 48 hours.
MTT cytotoxicity assays were carried out after cells were treated with the TMZ-POH conjugate. The MTT cytotoxicity assays were carried out as described in Chen T C, et al. Green tea epigallocatechin gallate enhances therapeutic efficacy of temozolomide in orthotopic mouse glioblastoma models. Cancer Lett. 2011 Mar. 28; 302(2):100-8.

[1] = tested on: TMZ resistant (U251TR) U251 cells; experiment: Colony forming assay, TMZ resistant U251TR cells; type: cell-based, human; settings: in words
Protocol: Colony forming assays were carried out after cells were treated with TMZ alone, POH alone, and the TMZ-POH conjugate. […] Cancer Lett. 2011 Mar. 28; 302(2):100-8.

MDA-MB-231-br = experiment: Colony formation assay, MDA-MB-231-br; type: cell-based, human; settings: for pIC50: Homo sapiens, 48 h, read-out: IC50 (concentration required to decrease colony formation by 50%)
Protocol: (§1) Depending on the cell line (and plating efficiency), 200-350 cells were seeded into each well of a 6-well plate. […] Thereafter, the drugs were removed, fresh growth medium was added, and the cells were kept in culture undisturbed for 12-16 days, during which time the surviving cells spawned colonies of descendants. Colonies (defined as groups of >50 cells) were visualized by staining for 4 hours with 1% methylene blue (in methanol), and then were counted.
(§2) The cytotoxic potency of TMZ-POH, was analyzed by colony formation assay (CFA) in a variety of human breast cancer cell lines and compared to the cytotoxicity of TMZ. We used estrogen receptor positive cells MCF7 and T47D, the triple-negative lines MDA-MB-231, MDA-MB-468, and HCC-1937, and a brain-seeking variant of the 231 cell line, MDA-MB-231-br.

T47D = experiment: Colony formation assay, T47D; type: cell-based, human; settings: for pIC50: Homo sapiens, 48 h, read-out: IC50 (concentration required to decrease colony formation by 50%)
Protocol: as §1, §2

MDA-MB-468 = experiment: Colony formation assay, MDA-MB-468; settings: for pIC50: Homo sapiens, MDA-MB-468, 48 h, read-out: IC50 (concentration required to decrease colony formation by 50%)
Protocol: as §1
(§3) In the case of O6-BG treatment, cells were pretreated with 10 μM O6-BG for one hour before addition of TMZ or TMZ-POH. After 24 hours, another 10 μM O6-BG was added to the medium. Another 24 hours later, drug-laced medium was removed, and fresh medium without drugs was added. Thereafter, cells remained undisturbed until staining with methylene blue.
as §2

MCF7 = experiment: Colony formation assay, MCF7; settings: for pIC50: Homo sapiens, MCF7, 48 h, read-out: IC50 (concentration required to decrease colony formation by 50%)
Protocol: as §1, §3, §2

231-MGMT-1 = experiment: Colony formation assay, MGMT-transfected 231-MGMT-1; type: cell-based, human; settings: for pIC50: Homo sapiens, 48 h, read-out: IC50 (concentration required to decrease colony formation by 50%)
Protocol: as §1, §3
(§4) MDA-MB-231 cells were co-transfected in 6-well plates with the use of Lipofectamine 2000 (Invitrogen, Carlsbad, Calif.) according to manufacturer's instructions. 2 μg pSV2MGMT (containing the human MGMT cDNA) was combined with 0.2 μg pSV2neo (containing the neomycin gene for selection of cells in G418). Both plasmids were provided by Bernd Kaina (Mainz, Germany). Individual clones of transfected cells were selected in medium containing 750 μg/mL G418 and propagated in 250 μg/mL G418. G418 was obtained as G418 disulfate salt from Sigma-Aldrich and dissolved in PBS at 75 mg/mL. Selection medium was removed from cells several days before experimental drug treatment.
(§5) To investigate the latter, we stably transfected MGMT-negative MDA-MB-231 cells with MGMT cDNA and isolated individual clones. […] Both clones were treated with increasing concentrations of TMZ-POH and TMZ and analyzed by CFA.

231-MGMT-2 = experiment: Colony formation assay, MGMT-transfected 231-MGMT-2; type: cell-based, human; settings: for pIC50: Homo sapiens, 48 h, read-out: IC50 (concentration required to decrease colony formation by 50%)
Protocol: as §1, §3, §4, §5

[2] = low micromolar concentrations, 48 hours, in words

SMILES | cytotoxicity (MTT assay) (U251 human glioma cells) | cytotoxicity (colony forming assay) [1] | pIC50 (MDA-MB-231-br) | Differential (−fold) (MDA-MB-231-br; fold increase in potency of TMZ-POH compared to TMZ, MDA-MB-231-br) | colony formation (CFA) (MDA-MB-231-br; [2]) | pIC50 (T47D; T47D) | Differential (−fold) (T47D; fold increase in potency of TMZ-POH compared to TMZ, T47D) | colony formation (CFA) (T47D; [2]) | pIC50 (MDA-MB-468) | Differential (−fold) (MDA-MB-468; fold increase in potency of TMZ-POH compared to TMZ, MDA-MB-468) | colony formation (CFA) (MDA-MB-468; [2]) | pIC50 (MCF7) | Differential (−fold) (MCF7; fold increase in potency of TMZ-POH compared to TMZ, MCF7) | colony formation (CFA) (MCF7; [2]) | pIC50 (231-MGMT-1) | Differential (−fold) (231-MGMT-1; fold increase in potency of TMZ-POH compared to TMZ, 231-MGMT-1) | pIC50 (231-MGMT-2) | Differential (−fold) (231-MGMT-2; fold increase in potency of TMZ-POH compared to TMZ, 231-MGMT-2)
C=C(C)[C@@H]1CC=C(COC(=O)NC(=O)c2ncn3c(=O)n(C)nnc23)CC1 [TMZ-POH] | substantially higher kill rates; also recorded: demonstrated cytotoxicity | demonstrated cytotoxicity; also recorded: substantially greater potency compared to POH alone | 5.92 | 3.2 −fold | prevented colony formation | 5.34 | 4.3 −fold | prevented colony formation | 4.51 | 6.3 −fold | prevented colony formation | 4.48 | 15.5 −fold | prevented colony formation | 4.57 | 7.5 −fold | 4.47 | 6.2 −fold
Cn1nnc2c(C(N)=O)ncn2c1=O [TMZ, temozolomide, reference compound] | minimal cytotoxicity | minimal cytotoxicity | 5.42 | – | – | 4.70 | – | – | 3.71 | – | – | 3.29 | – | – | 3.69 | – | 3.67 | –
